In patent publication US4731381A, “Method of treating a person for sickle cell anemia” (Merck & Co., Inc., priority 1986, dated 1988):
Where a name gives a salt, the structure may show the parent alone.

Tests used:
sickle hemoglobin (HbS) = sickle hemoglobin (HbS) (Homo sapiens, UniProt P68871+P69905, E7V); experiment: solubility assay (Csat assay) of sickle hemoglobin; format: biochemical; conditions: for activation at 3000 µM: 3 mM; for activation at 3000 µM / activation at 5000 µM / activation at 7000 µM / activation at 9000 µM: read-out: % increase in Solubility of HbS; for activation at 7000 µM: 7 mM; for activation at 9000 µM: 9 mM
From the text: One major assay for evaluating antisickling agents involves measuring their effect on increasing the concentration at which sickle hemoglobin forms a gel. This is called the solubility or Csat assay.
The solubility assay (Csat assay) measures the ability of a compound to increase solubility of sickle hemoglobin (HbS). […] The higher the ratio, the higher the activity of the compound.
In order to confirm the effectiveness of these compounds in reducing the effect of sickle cell anemia, tests were performed. The materials were tested according to the assay (Csat) developed by Hofrichter et al. (J. Hofrichter, P. D. Ross and W. A. Eaton, Proc. Natl. Acad. Sci., U.S.A. 73, 30-35, 1976). This assay involves deoxygenation of concentrated sickle hemoglobin with dithionite in the presence of different concentrations of the drugs being tested. Samples are then sealed in quartz epr tubes under anaerobic conditions and spun at about 150,000 g for about 21/2 hours at about 35° C. in an ultracentrifuge. This procedure pellets the polymerized HbS (sickle hemoglobin) to the bottom of the tubes and the supernatant (soluble HbS) is measured in the laboratory as the cyanmethemoglobulin derivative. […] Activity is reported as a ratio of the HbS solubility with the particular drug to HbS solubility with no drug, i.e. control. The higher the ratio the greater degree of activity of the drug. The numbers in parenthesis are the percent increase in solubility of HbS; again, the higher the number, the greater the activity. The results of representative compounds from the Examples are shown in Table I as typical of the compounds of the invention.

erythrocyte membranes = experiment: tests of transport across erythrocyte membranes; format: in vitro ADME
HbS = experiment: chromatographic separation, covalent binding between HbS and the agent

| activation at 3000 µM (sickle hemoglobin (HbS)) | activation at 5000 µM (sickle hemoglobin (HbS); 5 mM) | activation at 7000 µM (sickle hemoglobin (HbS)) | activation at 9000 µM (sickle hemoglobin (HbS)) | Compound | ability to cross the red blood cell membrane, in words (erythrocyte membranes) | covalent binding between HbS and the therapeutic agent, in words (HbS) | solubility ratio (Csat assay) compared with other antisickling agents, in words (sickle hemoglobin (HbS); 5 mM, sodium salt) |
| --- | --- | --- | --- | --- | --- | --- | --- |
| 26% | 33% | 43% | 69% | C=C(CC)C(=O)c1ccc(OCCC(=O)O)c(Cl)c1Cl [Example 1, 3-[2,3-dichloro-4-(2-methylenebutyryl)phenoxy]propionic acid] | – | – | – |
| 18% | 37% | 46% | 51% | C=C(CCC)C(=O)c1ccc(OCCCC(=O)O)c(Cl)c1Cl [Example 3, 4-[2,3-dichloro-4-(2-methylenevaleryl)phenoxy]butyric acid] | – | – | – |
| 21% | 34% | 52% | 80% | C=C(CC)C(=O)c1ccc(OCCCCC(=O)O)c(Cl)c1Cl [Example 4, 5-[2,3-dichloro-4-(2-methylenebutyryl)phenoxy]valeric acid] | – | – | – |
| 13% | 18% | 26% | 35% | C=C(CC)C(=O)c1ccc(OCCCCCC(=O)O)c(Cl)c1Cl [Example 5, 6-[2,3-dichloro-4-(2-methylenebutyryl)phenoxy]hexanoic acid] | – | – | – |
| 19% | 30% | 34% | 48% | C=C(CC)C(=O)c1ccc(OC2(C(=O)O)CCC2)c(Cl)c1Cl [Example 6, 1-[2,3-dichloro-4-(2-methylenebutyryl)phenoxy]cyclobutane-1-carboxylic acid] | – | – | – |
| 14% | 30% | 26% | 39% | C=C(CCC)C(=O)c1ccc(OC2(C(=O)O)CCC2)c(Cl)c1Cl [Example 7, 1-[2,3-dichloro-4-(2-methylenevaleryl)phenoxy]cyclobutane-1-carboxylic acid] | – | – | – |
| 11% | 21% | 41% | 53% | C=C(CC)C(=O)c1ccc(OC(C)(C)C(=O)O)c(Cl)c1Cl [Example 8, 2-[2,3-dichloro-4-(2-methylenebutyryl)phenoxy]-2-methylpropionic acid] | – | – | – |
| – | – | – | – | C=C(CC)C(=O)c1ccc(OCCCC(=O)O)c(Cl)c1Cl [sodium salt of 4-[2,3-dichloro-4-(2-methylenebutyryl)phenoxy]butyric acid] | cross the red blood cell membrane and react with hemoglobin | tight covalent binding between the HbS and the therapeutic agent had occurred | higher solubility ratio than other antisickling agents, such as, dichlorobenzyloxyacetic and p-bromobenzyloxyacetic acids |

| Compound | activation at 3000 µM (sickle hemoglobin (HbS)) | activation at 5000 µM (sickle hemoglobin (HbS); 5 mM) | activation at 7000 µM (sickle hemoglobin (HbS)) | activation at 9000 µM (sickle hemoglobin (HbS)) | ability to cross the red blood cell membrane, in words (erythrocyte membranes) | covalent binding between HbS and the therapeutic agent, in words (HbS) | solubility ratio (Csat assay) compared with other antisickling agents, in words (sickle hemoglobin (HbS); 5 mM, sodium salt) |
| --- | --- | --- | --- | --- | --- | --- | --- |
| C=C(CC)C(=O)c1ccc(OCCCC(=O)O)c(Cl)c1Cl [Example 2, 4-[2,3-dichloro-4-(2-methylenebutyryl)phenoxy]butyric acid] | 22% | 27% | 37% | 46% | – | – | – |
